The text below walks through data of PubChem BioAssay AID1745844 (Carcinogenic Potency Database (CPDB), 2022).

The term TD50 denotes the 50% point of the dose-response relation for the toxic effect studied.

The series concerns rodent lifetime carcinogenesis bioassay, tumor incidence TD50. Kind of series: carcinogenic potency in animals, long-term in vivo studies, CPDB compilation (AID 1745844).

Structures are written as SMILES. Active and inactive are the calls of the source. No rule for the calls is given here.

Regarding `N#CN`, the TD50 is 191 mg/kg/day (mouse, strain B6AKF1, males, oral dosing, site: liver, lesion: hepatoma, dosed 76 weeks, study length 76 weeks); 478 mg/kg/day (inactive) (mouse, strain B6C3F1, females, in feed, site: all sites, lesion: leukemia + lymphoma, dosed 100 weeks, study length 100 weeks); 4040 mg/kg/day (mouse, strain B6C3F1, females, in feed, site: lung, lesion: alveolar/bronchiolar adenoma + alveolar/bronchiolar carcinoma, dosed 100 weeks, study length 100 weeks); 68 mg/kg/day (mouse, strain B6C3F1, females, oral dosing, site: any site (literature study), lesion: several types, types named in the paper, dosed 76 weeks, study length 76 weeks); 766 mg/kg/day (inactive) (mouse, strain B6C3F1, males, in feed, site: all sites, lesion: hemangiosarcoma, dosed 100 weeks, study length 100 weeks); 909 mg/kg/day (mouse, strain B6C3F1, males, in feed, site: any site (literature study), lesion: several types, types named in the paper, dosed 100 weeks, study length 100 weeks). Further, the TD50 is 30.9 mg/kg/day (mouse, strain B6C3F1, males, oral dosing, site: all sites, lesion: reticulum-cell sarcoma, dosed 76 weeks, study length 76 weeks); 16.7 mg/kg/day (mouse, strain B6C3F1, males, oral dosing, site: any site (literature study), lesion: several types, types named in the paper, dosed 76 weeks, study length 76 weeks); 55.7 mg/kg/day (mouse, strain B6C3F1, males, oral dosing, site: liver, lesion: hepatoma, dosed 76 weeks, study length 76 weeks); 267 mg/kg/day (inactive) (rat, strain Fischer 344, females, in feed, site: any site (literature study), lesion: several types, types named in the paper, dosed 107 weeks, study length 107 weeks); 7.45 mg/kg/day (inactive) (rat, strain Fischer 344, males, in feed, site: all sites, lesion: leukemia + lymphoma + neoplasm, NOS, dosed 107 weeks, study length 107 weeks).

For `CC[N+](=O)[O-]`, under “rat, strain Long-Evans BLU:(LE), females, inhaled, site: liver, lesion: hepatocellular carcinoma, dosed 105 weeks, study length 105 weeks”, the TD50 was 2190 mg/kg/day (inactive). For the same compound, the carcinogen call (rat, strain Long-Evans BLU:(LE), males, inhaled, site: liver, lesion: one or several types, types not named, dosed 105 weeks, study length 105 weeks) was “negative (inactive)”.

As for `C/C=C/C=C/C=O`, the TD50 runs as follows: (mouse, strain B6C3F1, females, by gavage, site: forestomach, lesion: squamous-cell carcinoma + squamous-cell papilloma, dosed 104 weeks, study length 104 weeks) 129 mg/kg/day; (mouse, strain B6C3F1, females, by gavage, site: forestomach, lesion: squamous-cell carcinoma, dosed 104 weeks, study length 104 weeks) 580 mg/kg/day; (mouse, strain B6C3F1, females, by gavage, site: forestomach, lesion: squamous-cell papilloma, dosed 104 weeks, study length 104 weeks) 165 mg/kg/day; (mouse, strain B6C3F1, females, by gavage, site: skin, lesion: fibrosarcoma + fibrous histiocytoma, dosed 104 weeks, study length 104 weeks) 218 mg/kg/day; (mouse, strain B6C3F1, males, by gavage, site: any site (literature study), lesion: several types, types named in the paper, dosed 104 weeks, study length 104 weeks) 279 mg/kg/day; (mouse, strain B6C3F1, males, by gavage, site: forestomach, lesion: squamous-cell carcinoma + squamous-cell papilloma, dosed 104 weeks, study length 104 weeks) 279 mg/kg/day. In addition, the TD50 runs as follows: (mouse, strain B6C3F1, males, by gavage, site: forestomach, lesion: squamous-cell papilloma, dosed 104 weeks, study length 104 weeks) 354 mg/kg/day; (mouse, strain B6C3F1, males, by gavage, site: liver, lesion: hepatocellular adenoma + hepatoblastoma + hepatocellular carcinoma, dosed 104 weeks, study length 104 weeks) 211 mg/kg/day; (mouse, strain B6C3F1, males, by gavage, site: lung, lesion: alveolar/bronchiolar adenoma + alveolar/bronchiolar carcinoma, dosed 104 weeks, study length 104 weeks) 1980 mg/kg/day; (mouse, strain B6C3F1, males, by gavage, site: tongue, lesion: squamous-cell carcinoma, dosed 104 weeks, study length 104 weeks) 2080 mg/kg/day; (rat, strain Fischer 344, females, by gavage, site: any site (literature study), lesion: several types, types named in the paper, dosed 104 weeks, study length 104 weeks) 112 mg/kg/day; (rat, strain Fischer 344, females, by gavage, site: forestomach, lesion: squamous-cell papilloma, dosed 104 weeks, study length 104 weeks) 102 mg/kg/day. For the same compound, the TD50 was 415 mg/kg/day (rat, strain Fischer 344, males, by gavage, site: adrenal medulla, lesion: pheochromocytoma, malignant, dosed 104 weeks, study length 104 weeks); 107 mg/kg/day (rat, strain Fischer 344, males, by gavage, site: any site (literature study), lesion: several types, types named in the paper, dosed 104 weeks, study length 104 weeks); 44.7 mg/kg/day (rat, strain Fischer 344, males, by gavage, site: forestomach, lesion: squamous-cell carcinoma + squamous-cell papilloma, dosed 104 weeks, study length 104 weeks); 46.1 mg/kg/day (rat, strain Fischer 344, males, by gavage, site: forestomach, lesion: squamous-cell papilloma, dosed 104 weeks, study length 104 weeks).

Consider `CC(=O)OC[C@H]1O[C@@](COC(=O)C(C)C)(O[C@H]2O[C@H](COC(C)=O)[C@@H](OC(=O)C(C)C)[C@H](OC(=O)C(C)C)[C@H]2OC(=O)C(C)C)[C@@H](OC(=O)C(C)C)[C@@H]1OC(=O)C(C)C`, for which the carcinogen call (mouse, strain B6C3F1, females, in feed, site: any site (literature study), lesion: several types, types named in the paper, dosed 104 weeks, study length 104 weeks) was “negative (inactive)”; the carcinogen call (mouse, strain B6C3F1, males, in feed, site: any site (literature study), lesion: several types, types named in the paper, dosed 104 weeks, study length 104 weeks) is “negative (inactive)”; the carcinogen call (rat, strain Fischer 344, females, in feed, site: any site (literature study), lesion: several types, types named in the paper, dosed 104 weeks, study length 104 weeks) was “negative (inactive)”; the carcinogen call (rat, strain Fischer 344, males, in feed, site: any site (literature study), lesion: several types, types named in the paper, dosed 52 weeks, study length 52 weeks) is “negative (inactive)”; the carcinogen call (rat, strain Fischer 344, males, in feed, site: any site (literature study), lesion: several types, types named in the paper, dosed 104 weeks, study length 104 weeks) is “negative (inactive)”; the carcinogen call (rat, strain Fischer 344, males, in feed, site: liver, lesion: one or several types, types not named, dosed 52 weeks, study length 52 weeks) was “negative (inactive)”. Moreover, the TD50 is 3250 mg/kg/day (inactive) (rat, strain Fischer 344, females, in feed, site: any site (literature study), lesion: several types, types named in the paper, dosed 52 weeks, study length 52 weeks) and 3250 mg/kg/day (inactive) (rat, strain Fischer 344, females, in feed, site: liver, lesion: hepatocellular adenoma, dosed 52 weeks, study length 52 weeks).

In the case of `CCOC(=O)N(C)N=O`, the TD50 (hamster, strain Syrian Golden, both sexes, by gavage, site: esophagus, lesion: epidermoid carcinoma, dosed 27 weeks, study length 73 weeks) was 0.127 mg/kg/day. Moreover, the carcinogen call (hamster, strain Syrian Golden, both sexes, by gavage, site: forestomach, lesion: epidermoid carcinoma, dosed 27 weeks, study length 73 weeks) was “positive”.

For the compound `FC(F)Cl`, the carcinogen call (mouse, strain Swiss, females, inhaled, site: any site (literature study), lesion: malignant tumor, dosed 78 weeks, study length 104 weeks) is “negative (inactive)”; the carcinogen call (mouse, strain Swiss, females, inhaled, site: any site (literature study), lesion: several types, types named in the paper, dosed 78 weeks, study length 104 weeks) is “negative (inactive)”; the carcinogen call (mouse, strain Swiss, females, inhaled, site: lung, lesion: adenoma, dosed 78 weeks, study length 104 weeks) was “negative (inactive)”; the carcinogen call (mouse, strain Swiss, males, inhaled, site: any site (literature study), lesion: several types, types named in the paper, dosed 78 weeks, study length 104 weeks) was “negative (inactive)”; the carcinogen call (mouse, strain Swiss, males, inhaled, site: lung, lesion: adenoma, dosed 78 weeks, study length 104 weeks) was “negative (inactive)”; the carcinogen call (rat, strain Sprague-Dawley, females, inhaled, site: liver, lesion: angiosarcoma, dosed 104 weeks, study length 104 weeks) was “negative (inactive)”. The carcinogen call runs as follows: (rat, strain Sprague-Dawley, males, inhaled, site: any site (literature study), lesion: malignant tumor, dosed 104 weeks, study length 104 weeks) “negative (inactive)”; (rat, strain Sprague-Dawley, males, inhaled, site: liver, lesion: angiosarcoma, dosed 104 weeks, study length 104 weeks) “negative (inactive)”. Also, the TD50 (mouse, strain Swiss, males, inhaled, site: any site (literature study), lesion: malignant tumor, dosed 78 weeks, study length 104 weeks) is 98300 mg/kg/day (inactive); the TD50 (rat, strain Sprague-Dawley, females, inhaled, site: any site (literature study), lesion: malignant tumor, dosed 104 weeks, study length 104 weeks) was 20100 mg/kg/day (inactive); the TD50 (rat, strain Sprague-Dawley, females, inhaled, site: any site (literature study), lesion: several types, types named in the paper, dosed 104 weeks, study length 104 weeks) was 26000 mg/kg/day (inactive); the TD50 (rat, strain Sprague-Dawley, males, inhaled, site: any site (literature study), lesion: several types, types named in the paper, dosed 104 weeks, study length 104 weeks) is 6540 mg/kg/day (inactive).

Consider `S=C=NCCCCCCc1ccccc1`, for which the carcinogen call runs as follows: (rat, strain Fischer 344, males, in feed, site: colon, lesion: one or several types, types not named, dosed 55 weeks, study length 55 weeks) “negative (inactive)”; (rat, strain Fischer 344, males, in feed, site: liver, lesion: hepatocellular adenoma, dosed 112 weeks, study length 112 weeks) “negative (inactive)”; (rat, strain Fischer 344, males, in feed, site: liver, lesion: hepatocellular carcinoma, dosed 112 weeks, study length 112 weeks) “negative (inactive)”; (rat, strain Fischer 344, males, in feed, site: pancreas, exocrine, lesion: acinar-cell adenoma, dosed 112 weeks, study length 112 weeks) “negative (inactive)”; (rat, strain Fischer 344, males, in feed, site: pancreatic islets, lesion: islet-cell adenoma, dosed 112 weeks, study length 112 weeks) “negative (inactive)”.
